From ChEMBL document CHEMBL1124621, “Inhibition of mammalian folylpolyglutamate synthetase and human dihydrofolate reductase by 5,8-dideaza analogues of folic acid and aminopterin bearing a terminal L-ornithine” (J Med Chem, 1989)

Legend:
[1] = species on record: Sus scrofa; assay: Maximal elimination rate of metabolism for hog liver folyl-poly-glutamate synthetase was evaluated; assay type: ADME; set-up: unit not given here; settings: pig
[2] = system: folylpolyglutamate synthetase; assay: (§1) Km for hog liver folyl-poly-glutamate synthetase was evaluated; assay type: ADME, Sus scrofa; settings: pig, hog liver folylpolyglutamate synthetase
[3] = target: T1, Dihydrofolate reductase (Homo sapiens, UniProt P00374); assay: Inhibition of human dihydrofolate reductase; settings: read-out: I50
T1 sequence (P00374 whole entry): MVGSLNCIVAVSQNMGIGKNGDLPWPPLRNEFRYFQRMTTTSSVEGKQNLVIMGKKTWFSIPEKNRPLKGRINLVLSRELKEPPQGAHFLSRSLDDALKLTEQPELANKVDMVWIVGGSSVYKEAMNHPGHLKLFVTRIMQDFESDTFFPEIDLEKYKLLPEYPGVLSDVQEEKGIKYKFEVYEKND

[4] = species on record: Sus scrofa; assay: as §1; assay type: ADME; settings: pig

Vmax [1]	Km [2] [µM]	IC50 [3] [µM]	Km [4] [µM]	SMILES
33	15			Nc1nc(O)c2cc(CSc3ccc(C(=O)NC(CCC(=O)O)C(=O)O)cc3)ccc2n1 (stereo not drawn)
25	22			Nc1nc(O)c2cc(COc3ccc(C(=O)NC(CCC(=O)O)C(=O)O)cc3)ccc2n1 (stereo not drawn)
50	8.1			O=C(O)CCC(NC(=O)c1ccc(SCc2ccc3ncnc(O)c3c2)cc1)C(=O)O (stereo not drawn)
		0.43		NCCCC(NC(=O)c1ccc(NCc2ccc3nc(N)[nH]c(=O)c3c2Cl)cc1)C(=O)O (stereo not drawn)
		0.53		NCCCC(NC(=O)c1ccc(OCc2ccc3nc(N)nc(O)c3c2)cc1)C(=O)O (stereo not drawn)
95	35			O=C(O)CCC(NC(=O)c1ccc(OCc2ccc3ncnc(O)c3c2)cc1)C(=O)O (stereo not drawn)
57	0.2			Nc1nc(N)c2c(Cl)c(CNc3ccc(C(=O)NC(CCC(=O)O)C(=O)O)cc3)ccc2n1 (stereo not drawn)
68	0.3	0.1		Nc1nc(O)c2c(Cl)c(CNc3ccc(C(=O)NC(CCC(=O)O)C(=O)O)cc3)ccc2n1 (stereo not drawn)
		0.003		NCCCC(NC(=O)c1ccc(NCc2ccc3nc(N)nc(N)c3c2Cl)cc1)C(=O)O (stereo not drawn)
		3.8		NCCCC(NC(=O)c1ccc(OCc2ccc3nc[nH]c(=O)c3c2)cc1)C(=O)O (stereo not drawn)
		1.5		NCCCC(NC(=O)c1ccc(SCc2ccc3nc(N)[nH]c(=O)c3c2)cc1)C(=O)O (stereo not drawn)
		3.8		NCCCC(NC(=O)c1ccc(SCc2ccc3ncnc(O)c3c2)cc1)C(=O)O (stereo not drawn)
100			7.7	Nc1nc2ncc(CNc3ccc(C(=O)N[C@@H](CCC(=O)O)C(=O)O)cc3)nc2c(=O)[nH]1 (stereo in doubt; form 1) [FOLIC ACID]
61			93	Nc1nc2ncc(CNc3ccc(C(=O)N[C@@H](CCC(=O)O)C(=O)O)cc3)nc2c(=O)[nH]1 (stereo in doubt; form 2) [FOLIC ACID]
